Measurements taken from PMC6917776, “Discovery of a chemical probe for PRDM9” (Nature Communications, 2019).
Like-named read-outs stand apart in the source and are kept apart here.

Assay: CelltiterGlo viability cell assay
Type: cell-based
Settings: human
Method in brief: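 CelltiterGlo luminescence, day 3 and day 6 readouts; compound 0.01–30 μM; data normalized to DMSO; n=3 biological replicates ± SEM.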

[1] = HCC1143 breast cancer cells, HCC1143, 6 day, read-out: viability Replicate 3
[2] = HCC1143 breast cancer cells, HCC1143, 6 day, read-out: viability Average
[3] = HCC1143 breast cancer cells, HCC1143, 6 day, read-out: viability Replicate 1
[4] = HCC1143 breast cancer cells, HCC1143, 6 day, read-out: viability Replicate 2
[5] = HCC1806 breast cancer cells, HCC1806, 3 day, read-out: viability Average
[6] = HCC1806 breast cancer cells, HCC1806, 3 day, read-out: viability Replicate 1
[7] = HCC1806 breast cancer cells, HCC1806, 3 day, read-out: viability Replicate 2
[8] = HCC1806 breast cancer cells, HCC1806, 3 day, read-out: viability Replicate 3
[9] = HCC1806 breast cancer cells, HCC1806, 6 day, read-out: viability Average
[10] = HCC1806 breast cancer cells, HCC1806, 6 day, read-out: viability Replicate 1
[11] = HCC1806 breast cancer cells, HCC1806, 6 day, read-out: viability Replicate 2
[12] = HCC1806 breast cancer cells, HCC1806, 6 day, read-out: viability Replicate 3
[13] = HCC1806 cells, HCC1806, 3 day, read-out: viability Average
[14] = HCC1806 cells, HCC1806, 3 day, read-out: viability Replicate 1
[15] = HCC1806 cells, HCC1806, 3 day, read-out: viability Replicate 2
[16] = HCC1806 cells, HCC1806, 3 day, read-out: viability Replicate 3

Compound: COc1cc(OC)cc(-c2noc(N3CCN(C)C4(CCN(c5ccnc(C)c5)CC4)C3)n2)c1 [MRK-740]
- viability at 6 day, 0.03 µM [1]: 104%
- viability at 6 day, 0.1 µM [2]: 105%
- viability at 6 day, 0.1 µM [3]: 103%
- viability at 6 day, 0.1 µM [4]: 102%
- viability at 6 day, 0.1 µM [1]: 111%
- viability at 6 day, 0.3 µM [2]: 110%
- viability at 6 day, 0.3 µM [3]: 109%
- viability at 6 day, 0.3 µM [4]: 111%
- viability at 6 day, 0.3 µM [1]: 111%
- viability at 6 day, 1 µM [2]: 112%
- viability at 6 day, 1 µM [3]: 114%
- viability at 6 day, 1 µM [4]: 108%
- viability at 6 day, 1 µM [1]: 113%
- viability at 6 day, 3 µM [2]: 108%
- viability at 6 day, 3 µM [3]: 106%
- viability at 6 day, 3 µM [4]: 109%
- viability at 6 day, 3 µM [1]: 110%
- viability at 6 day, 9.5 µM [2]: 79.4%
- viability at 6 day, 9.5 µM [3]: 79.5%
- viability at 6 day, 9.5 µM [4]: 78.6%
- viability at 6 day, 9.5 µM [1]: 80.2%
- viability at 6 day, 30 µM [2]: 18.9%
- viability at 6 day, 30 µM [3]: 20.9%
- viability at 6 day, 30 µM [4]: 18.4%
- viability at 6 day, 30 µM [1]: 17.3%
- viability at 3 day, 0.1 µM (HCC1143 cells, HCC1143, 3 day, read-out: viability Average): 93.6%
- viability at 3 day, 0.1 µM (HCC1143 cells, HCC1143, 3 day, read-out: viability Replicate 1): 95.6%
- viability at 3 day, 0.1 µM (HCC1143 cells, HCC1143, 3 day, read-out: viability Replicate 2): 90.7%
- viability at 3 day, 0.1 µM (HCC1143 cells, HCC1143, 3 day, read-out: viability Replicate 3): 94.6%
- viability at 3 day, 0.01 µM [5]: 107%
- viability at 3 day, 0.01 µM [6]: 103%
- viability at 3 day, 0.01 µM [7]: 110%
- viability at 3 day, 0.01 µM [8]: 107%
- viability at 3 day, 0.03 µM [5]: 102%
- viability at 3 day, 0.03 µM [6]: 99.9%
- viability at 3 day, 0.03 µM [7]: 101%
- viability at 3 day, 0.03 µM [8]: 104%
- viability at 3 day, 1 µM [5]: 103%
- viability at 3 day, 1 µM [6]: 104%
- viability at 3 day, 1 µM [7]: 111%
- viability at 3 day, 1 µM [8]: 94.5%
- viability at 3 day, 3 µM [5]: 89.8%
- viability at 3 day, 3 µM [6]: 92.2%
- viability at 3 day, 3 µM [7]: 107%
- viability at 3 day, 3 µM [8]: 70.5%
- viability at 3 day, 9.5 µM [5]: 37.6%
- viability at 3 day, 9.5 µM [6]: 40.7%
- viability at 3 day, 9.5 µM [7]: 51.7%
- viability at 3 day, 9.5 µM [8]: 20.5%
- viability at 3 day, 30 µM [5]: 11.6%
- viability at 3 day, 30 µM [6]: 13.2%
- viability at 3 day, 30 µM [7]: 14.9%
- viability at 3 day, 30 µM [8]: 6.61%
- viability at 6 day, 0.01 µM [9]: 102%
- viability at 6 day, 0.01 µM [10]: 107%
- viability at 6 day, 0.01 µM [11]: 100%
- viability at 6 day, 0.01 µM [12]: 99.6%
- viability at 6 day, 0.03 µM [9]: 106%
- viability at 6 day, 0.03 µM [10]: 111%
- viability at 6 day, 0.03 µM [11]: 101%
- viability at 6 day, 0.03 µM [12]: 106%
- viability at 6 day, 0.1 µM [9]: 106%
- viability at 6 day, 0.1 µM [10]: 107%
- viability at 6 day, 0.1 µM [11]: 106%
- viability at 6 day, 0.1 µM [12]: 106%
- viability at 6 day, 0.3 µM [9]: 109%
- viability at 6 day, 0.3 µM [10]: 113%
- viability at 6 day, 0.3 µM [11]: 106%
- viability at 6 day, 0.3 µM [12]: 108%
- viability at 6 day, 1 µM [9]: 103%
- viability at 6 day, 1 µM [10]: 102%
- viability at 6 day, 1 µM [11]: 101%
- viability at 6 day, 1 µM [12]: 107%
- viability at 6 day, 3 µM [9]: 63.9%
- viability at 6 day, 3 µM [10]: 63.2%
- viability at 6 day, 3 µM [11]: 58.6%
- viability at 6 day, 3 µM [12]: 69.8%
- viability at 6 day, 9.5 µM [9]: 24.9%
- viability at 6 day, 9.5 µM [10]: 23.5%
- viability at 6 day, 9.5 µM [11]: 25%
- viability at 6 day, 9.5 µM [12]: 26.3%
- viability at 6 day, 30 µM [9]: 4.91%
- viability at 6 day, 30 µM [10]: 5.1%
- viability at 6 day, 30 µM [11]: 5.11%
- viability at 6 day, 30 µM [12]: 4.53%
- viability at 3 day, 0.1 µM [13]: 110%
- viability at 3 day, 0.1 µM [14]: 122%
- viability at 3 day, 0.1 µM [15]: 110%
- viability at 3 day, 0.1 µM [16]: 97.6%
- viability at 3 day, 0.3 µM [13]: 106%
- viability at 3 day, 0.3 µM [14]: 109%
- viability at 3 day, 0.3 µM [15]: 108%
- viability at 3 day, 0.3 µM [16]: 101%
- viability at 3 day, 0.01 µM (MDA-MB-436 breast cancer cells, MDA MB436, 3 day, read-out: viability Average): 104%
- viability at 3 day, 0.01 µM (MDA-MB-436 breast cancer cells, MDA MB436, 3 day, read-out: viability Replicate 1): 123%
